In US11679107B2 (Eisai R&D Management Co., Ltd., priority 2018, dated 2023):
Read-outs that look alike come from different tables or passages of the source.

Experiments:
[1] = molecular target: T1, SF3b complexes (Homo sapiens, UniProt O75533+Q7RTV0); test: Scintillation proximity assay (SPA) with [3H]-labelled pladienolide probe; assay type: binding; conditions: SF3B1 (WT); geometric mean; read-out: SPA-ATS GMean IC50 (nM) SF3B1 (WT)
T1 construct: endogenous in cells; host or cells: Nuclear extracts; A HeLa S3 extract preparation is described for the in vitro splicing assay
Procedure, shortened: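 SF3b complexes captured from nuclear extracts on anti-SF3B1 antibody SPA beads; test compounds pre-incubated 30 min before 2.5 nM [3H]-pladienolide probe added, then 30 min incubation. Bound probe read by scintillation; values from non-linear regression of concentration–response curves.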

[2] = tested on: Ad2 variant pre-mRNAs spliced in HeLa S3 nuclear extracts; test: In vitro splicing assay (IVS), RT-qPCR of spliced product; assay type: biochemical; conditions: for IC50: geometric mean; for Ratio Ad2.1/2.2: ratio of IVS IC50 Ad2.1 to Ad2.2
Procedure, shortened: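 Read-out is one-step TaqMan RT-qPCR of spliced Ad2 mRNA with Ftz as reference, normalized to DMSO and fit by non-linear regression. Reactions held HeLa S3 nuclear extract, 2 ng Ad2-derived pre-mRNA and test compound, with 15 min preincubation. Splicing was started with ATP-containing activation buffer and run 90 min at 30 °C.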

[3] = tested on: Panc 05.04 cells (SF3b K700E mutant); test: Cell proliferation and viability, CellTiter-Glo, 72 hours; assay type: cell-based; conditions: for GI50: geometric mean
Procedure, shortened: (§1)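 RPMI-1640/10% FBS (Panc: + insulin, FBS 15%); 11-pt half-log dose, ~10 μM-100 pM, 0.1% DMSO; 37° C, 5% CO2; ATP luminescence read; % inhibition vs T0 and vehicle, −100% cidal to 100% uninhibited growth.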

[4] = tested on: NCI-H1568 cells (high MCL1); test: as above; assay type: cell-based; conditions: for GI50: geometric mean
Procedure, shortened: as §1

[5] = Ad2.1 pre-mRNA substrate, read-out: qPCR-IVS-ATS GMean IC50 (nM) Ad2.1
[6] = Ad2.2 pre-mRNA substrate, read-out: qPCR-IVS-ATS GMean IC50 (nM) Ad2.2
[7] = PANC0504.1 cells, 72 h, −100% cidal, 0% static, 100% maximal growth
[8] = Panc 05.04, read-out: CTGlo-ATS GMean GI50 (nM) 72 h PANC0504.1, PANC0504.1 cells, 72 h
[9] = NCI-H1568, read-out: CTGlo-ATS GMean GI50 (nM) 72 h NCIH1568.1, NCIH1568.1 cells, 72 h
[10] = NCIH1568.1 cells, 72 h, −100% cidal, 0% static, 100% maximal growth
[11] = 72 h, PANC0504.1, -100% = cidal, 0% = static, 100% = uninhibited growth
[12] = Panc 05.04, read-out: CTGlo-ATS GMean GI50 (nM) 72 h PANC0504.1, 72 h, PANC0504.1
[13] = 72 h, NCIH1568.1, -100% = cidal, 0% = static, 100% = uninhibited growth
[14] = NCI-H1568, read-out: CTGlo-ATS GMean GI50 (nM) 72 h NCIH1568.1, 72 h, NCIH1568.1
[15] = Panc 05.04, 72 h, read-out: CTGlo-ATS GMean GI50 (nM) 72 h PANC0504.1, 72 h, PANC0504.1
[16] = NCI-H1568, 72 h, read-out: CTGlo-ATS GMean GI50 (nM) 72 h NCIH1568.1, 72 h, NCIH1568.1

| SMILES | IC50 [1] [nM] | IC50 [2, 5] [nM] | IC50 [2, 6] [nM] | CTGlo-ATS Mean MinResponse % 72 h PANC0504.1 [3, 7] [%] | GI50 [3, 8] [nM] | GI50 [4, 9] [nM] | CTGlo-ATS Mean MinResponse % 72 h NCIH1568.1 [4, 10] [%] | Ratio Ad2.1/2.2 [2] | CTGlo-ATS Mean MinResponse % 72 h PANC0504.1 [3, 11] [%] | GI50 [3, 12] [nM] | CTGlo-ATS Mean MinResponse % 72 h NCIH1568.1 [4, 13] [%] | GI50 [4, 14] [nM] | GI50 ([3]; Panc 05.04, 72 h, read-out: CTGlo-ATS GMean GI50 (nM) 72 h PANC0504.1, PANC0504.1 cells, 72 h) [nM] | GI50 ([4]; NCI-H1568, 72 h, read-out: CTGlo-ATS GMean GI50 (nM) 72 h NCIH1568.1, NCIH1568.1 cells, 72 h) [nM] | GI50 [3, 15] [nM] | GI50 [4, 16] [nM] |
| --- | --- | --- | --- | --- | --- | --- | --- | --- | --- | --- | --- | --- | --- | --- | --- | --- |
| C/C(=C\c1cc(F)cc(N(C)C)c1)[C@H]1OC(=O)C[C@H](O)CC[C@H](C)[C@@H](OC(=O)N2CCN(C)CC2)/C=C/[C@@H]1C [Compound 29] | 5.6 | > 25000 | 90.7 | −90.429 | 34.7 | 53.8 | −19.404 | – | – | – | – | – | – | – | – | – |
| C/C(=C\c1cc(F)cc(N2CCN(CC(F)(F)F)CC2)c1)[C@H]1OC(=O)C[C@H](O)CC[C@H](C)[C@@H](OC(=O)N2CCN(C)CC2)/C=C/[C@@H]1C [Compound 107] | 8.76 | 190 | 25.4 | −83.679 | 8.46 | 7.27 | −87.564 | – | – | – | – | – | – | – | – | – |
| C/C(=C\c1cccc(S(=O)(=O)N2CCCC2C)c1)[C@H]1OC(=O)CC(O)CCC(C)[C@@H](OC(=O)N2CCN(C)CC2)/C=C/[C@@H]1C (stereo in doubt) [Compound 200, [(2S,3S,4E,6R,7R,10S)-10-hydroxy-3,7-dimethyl-2-[(E)-1-[3-[(2S)-2-methylpyrrolidin-1-yl]sulfonylphenyl]prop-1-en-2-yl]-12-oxo-1-oxacyclododec-4-en-6-yl] 4-methylpiperazine-1-carboxylate] | 8.03 | 8050 | 27 | – | – | – | – | 297.600 | −94.085 | 17.4 | −51.281 | 24.2 | – | – | – | – |
| C/C(=C\c1cc(F)cc(N2CCOC(C)C2)c1)[C@H]1OC(=O)C[C@H](O)CC[C@H](C)[C@@H](OC(=O)N2CCN(C)CC2)/C=C/[C@@H]1C (some centres unmarked) [Compound 70] | 1.55 | 17.6 | 16.5 | −83.969 | – | – | −77.042 | – | – | – | – | – | 5.94 | 3.37 | – | – |
| C/C(=C\c1ccc(C)c(N2CCCC2=O)c1)[C@H]1OC(=O)C[C@H](O)CC[C@H](C)[C@@H](OC(=O)N2CCN(C)CC2)/C=C/[C@@H]1C [Compound 207, [(2S,3S,4E,6R,7S,10R)-10-hydroxy-3,7-dimethyl-2-[(E)-1-[4-methyl-3-(2-oxopyrrolidin-1-yl)phenyl]prop-1-en-2-yl]-12-oxo-1-oxacyclododec-4-en-6-yl] 4-methylpiperazine-1-carboxylate] | 3.46 | 22.5 | 15.5 | – | – | – | – | 1.451 | −92.266 | 15.1 | −63.380 | 16.9 | – | – | – | – |
| C/C(=C\c1cc(F)cc(N2CCOCC2)c1)[C@H]1OC(=O)C[C@H](O)CC[C@H](C)[C@@H](OC(=O)N2CCC(N3CCCCC3)CC2)/C=C/[C@@H]1C [Compound 262, [(2S,3S,4E,6R,7S,10R)-2-[(E)-1-(3-fluoro-5-morpholin-4-ylphenyl)prop-1-en-2-yl]-10-hydroxy-3,7-dimethyl-12-oxo-1-oxacyclododec-4-en-6-yl] 4-piperidin-1-ylpiperidine-1-carboxylate] | 5.66 | 4100 | 51.6 | – | – | – | – | 79.467 | −91.709 | – | −65.862 | – | – | – | 29.3 | 41.7 |
| CC[C@H](O)[C@@H](C)CN1CCN(c2cc(F)cc(/C=C(\C)[C@H]3OC(=O)C[C@H](O)CC[C@H](C)[C@@H](OC(=O)N4CCN(C)CC4)/C=C/[C@@H]3C)c2)CC1 [Compound 71] | 3.71 | 29.7 | 18.9 | −68.599 | 11.5 | 6.39 | −92.527 | – | – | – | – | – | – | – | – | – |
| C/C(=C\c1cc(F)cc(N(C)C2CCOCC2)c1)[C@H]1OC(=O)C[C@H](O)CC[C@H](C)[C@@H](OC(=O)N2CCN(C)CC2)/C=C/[C@@H]1C [Compound 168] | 3.05 | 27.6 | 16.5 | −86.930 | 10.4 | 5.96 | −75.760 | – | – | – | – | – | – | – | – | – |
| C/C(=C\c1cc(F)cc(N2CC[C@H](N(C)C)C2)c1)[C@H]1OC(=O)C[C@H](O)CC[C@H](C)[C@@H](OC(=O)N2CCN(C)CC2)/C=C/[C@@H]1C [Compound 17] | 10.7 | 46.8 | 34 | −72.749 | 57.8 | 53.4 | −87.647 | – | – | – | – | – | – | – | – | – |
| C/C(=C\c1cc(F)cc(N2CCOCC2)c1)[C@H]1OC(=O)C[C@H](O)CC[C@H](C)[C@@H](OC(=O)N(C)CCC#N)/C=C/[C@@H]1C [Compound 245, [(2S,3S,4E,6R,7S,10R)-2-[(E)-1-(3-fluoro-5-morpholin-4-ylphenyl)prop-1-en-2-yl]-10-hydroxy-3,7-dimethyl-12-oxo-1-oxacyclododec-4-en-6-yl] N-(2-cyanoethyl)-N-methylcarbamate] | 17.4 | 8880 | 64.8 | – | – | – | – | 136.897 | −95.548 | – | −46.475 | – | – | – | 113 | 62.3 |
| C/C(=C\c1cc(F)cc(N2CCOCC2)c1)[C@H]1OC(=O)C[C@H](O)CC[C@H](C)[C@@H](OC(=O)N2CCN(C(C)C)CC2)/C=C/[C@@H]1C [Compound 24] | 5.19 | 192 | 30.7 | −89.895 | 8.29 | 10.9 | −67.459 | – | – | – | – | – | – | – | – | – |
| C/C(=C\c1cc(F)c2cnn(CC(=O)N(C)C)c2c1)[C@H]1OC(=O)C[C@H](O)CC[C@H](C)[C@@H](OC(=O)N2CCN(C)CC2)/C=C/[C@@H]1C [Compound 132] | 4.91 | 34.1 | 12.8 | −94.673 | 13.6 | 11.5 | −68.423 | – | – | – | – | – | – | – | – | – |
| C/C(=C\c1cc(F)cc(N2CC3CCC(C2)O3)c1)[C@H]1OC(=O)C[C@H](O)CC[C@H](C)[C@@H](OC(=O)N2CCN(C)CC2)/C=C/[C@@H]1C [Compound 32] | 3.24 | 19.5 | 16.2 | −69.289 | 6.53 | 10 | −74.701 | – | – | – | – | – | – | – | – | – |
